Measured values reported in the supplement of paper PMC11451515.

What was measured:
Assay in all cases: AUC of viability dose-response curve (% viability x log10 dose units); higher = less sensitive
Settings in all cases: 48 h
[1] = system: SEM cells
Procedure, shortened: (§1)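 Leukemia cells adapted to each medium were seeded at 500 or 1000 cells/well in 1536-well plates and dosed with library compounds in DMSO at 11 threefold doses from 47 μM to 0.79 nM for 48 h at 37°C. CellTiter-Glo One luminescence was normalised per plate to DMSO and cell-free wells, then fitted with a four-parameter log-logistic model over log10 doses. Area under the curve was taken from this fit by the trapezoidal rule, with curves above full viability scaled and curves failing quality control removed.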

[2] = system: P12-Ichikawa
Procedure, shortened: as §1

[3] = system: NOMO1
Procedure, shortened: as §1

[4] = RPMI 5 mM glucose + 10% dialyzed FBS

| SMILES | AUC of viability dose-response curve ([1]; HPLM + 10% dialyzed FBS) | AUC of viability dose-response curve ([1]; RPMI 5 mM glucose + 10% FBS) | AUC of viability dose-response curve [1, 4] | AUC of viability dose-response curve ([2]; HPLM + 10% dialyzed FBS) | AUC of viability dose-response curve ([2]; RPMI 5 mM glucose + 10% FBS) | AUC of viability dose-response curve [2, 4] | AUC of viability dose-response curve ([3]; HPLM + 10% dialyzed FBS) | AUC of viability dose-response curve ([3]; RPMI 5 mM glucose + 10% FBS) | AUC of viability dose-response curve [3, 4] |
| --- | --- | --- | --- | --- | --- | --- | --- | --- | --- |
| Clc1ccccc1C(c1ccccc1)(c1ccccc1)n1cccn1 | 467 | 456 | 425 | 470 | 462 | 470 | 454 | 445 | 457 |
| O=[S+]([O-])(/N=C/c1c(O)ccc2ccccc12)c1cccs1 | 442 | 428 | 440 | 464 | 465 | 468 | 443 | 472 | 455 |
| NC(=O)c1cnc(-c2ccc(C3(N)CCC3)cc2)c(-c2ccccc2)c1 | 400 | 396 | 394 | 428 | 448 | 432 | 428 | 468 | 460 |
| Cc1ccc(NC(=O)Nc2cc(C(F)(F)F)ccc2F)cc1Nc1ccc2c(c1)NC(=O)/C2=C\c1ccc[nH]1 | 439 | 440 | 428 | 466 | 462 | 454 | 455 | 460 | 449 |
| CN1\N=N/C2=C(N=C[N]2C1=O)C(N)=O | 331 | 318 | 306 | 466 | 466 | 452 | 445 | 458 | 450 |
| NCCCC(O)(P(=O)(O)O)P(=O)(O)O.O.O.O.[Na+] | 402 | 366 | 382 | 395 | 421 | 398 | 416 | 439 | 456 |
| COc1cccc(Nc2c(C(N)=O)cnc3c(C)cc([S+](=O)([O-])c4cccc(C(=O)N(C)C)c4)cc23)c1 | 459 | 466 | 468 | 470 | 472 | 469 | 465 | 472 | 469 |
| CCN1\C=C(C(O)=O)/C(=O)C2=C1C=C(N3CCN(C)CC3)C(=C2)F | 472 | 458 | 450 | 437 | 437 | 426 | – | – | – |
| NC/1=N/C(=O)N(C[C@@H](CO)OC[P](O)(O)=O)/C=C1 | 455 | 466 | 439 | 458 | 443 | 460 | 421 | 460 | 475 |
| CO[C@H]1/C=C/O[C@@]2(C)Oc3c(C)c(O)c4c(O)c(c(/C=N/N5CCN(C)CC5)c(O)c4c3C2=O)NC(=O)/C(C)=C\C=C\[C@H](C)[C@H](O)[C@@H](C)[C@@H](O)[C@@H](C)[C@H](OC(C)=O)[C@@H]1C | – | – | – | 441 | 445 | 430 | 431 | 461 | 461 |
